By IC50 is commonly meant the concentration that inhibits the measured activity by half. The low end stands for greater potency in that assay, the high end for weaker potency in that assay.

SMILES strings stand for the structures.

This test has as its system HIV-1 (NL4-3 strain). In words: Viral Kinetics GFP Reporter (ViKinG) assay. The test is classed as cell-based. The settings on record: Human immunodeficiency virus 1, NL43; 50% NHS; MT4-GFP cells infected with HIV-1 NL4-3; mean of at least two independent experiments. The source says: Viral Kinetics GFP Reporter (ViKinG) Assay
The ViKinG assay is an in vitro kinetic assay that employs the MT4-gag-GFP reporter cell line (Wang et al., “Assessment of the susceptibility of mutant HIV-1 to antiviral agents.” J Virological Methods 165:230-37 (2010)) to quantify the number of new cells infected in each round of replication. The purpose of the ViKinG assay is to identify agents that inhibit HIV progression. Briefly, HIV infection results in tat transactivation of the stably expressed HIV LTR promoter to drive gagGFP expression. Thus, an increase in the number of GFP-MT4 cells results following HIV infection.
MT4-GFP cells (250,000 cells/ml) were bulk-infected with HIV-1 (NL4-3 strain) at low multiplicity of infection (MOI) in RPMI+10% FBS for 24 hours. Cells were then washed once in RPMI+10% FBS and resuspended RPMI+10% or 50% normal human serum (NHS). Test compounds were serial-diluted in DMSO on an ECHO® liquid handling platform (Labcyte Corp., Sunnyvale, Calif.), along with a triple drug control (integrase, protease and NNRTI compounds). The infected MT4-GFP cells were added to a 384-well poly-D-lysine coated black plate with clear bottom in which the diluted test compounds were placed. The cells were seeded at 8,000 cells per well and the final DMSO concentration was 0.4%. The infected cells (Green GFP cells) were quantified at both 24 and 48 hours post incubation using Acumen® eX3 (TTP Labtech Ltd., Hertfordshire, United Kingdom). Viral reproductive ratio (R0) was determined using the number of infected cells at 48 hours divided by the number of infected cells at 24 hours. Percent viral growth inhibition was calculated by [1−(R−Rtripledrug)/(RDMSO−Rtripledrug)]*100. Compound potency IP or IC50 was determined by a 4-parameter dose response curve analysis.
In turn, `COC(=O)N[C@H](C(=O)Nc1cccc(F)c1CC[C@@H]1CNCC2(CCOCC2)O1)[C@@H](c1ccc(Cl)cc1)C1CCOCC1` [Example 161, methyl[(1S,2R)-2-(4-chlorophenyl)-1-[(2-{2-[(2R)-1,9-dioxa-4-azaspiro[5.5]undec-2-yl]ethyl}-3-fluorophenyl)carbamoyl]-2-(tetrahydro-2H-pyran-4-yl)ethyl]carbamate] yielded an IC50 of 0.13 µM.

For `CC(=O)N1CCC2(CC1)CNC[C@@H](CCc1c(F)cncc1NC(=O)[C@@H](N)[C@@H](c1ccc(Cl)cc1)c1cc(F)cc(F)c1)O2` [Example 152, (βS)-N-(4-{2-[(2R)-9-acetyl-1-oxa-4,9-diazaspiro[5.5]undec-2-yl]ethyl}-5-fluoropyridin-3-yl)-4-chloro-β-(3,5-difluorophenyl)-L-phenylalaninamide], the midpoint of inhibition, the IC50, lay at 0.32 µM. In turn, `COC(=O)N[C@H](C(=O)Nc1cccc(F)c1CC[C@@H]1CNCC2(CCN(C(C)=O)CC2)O1)[C@@H](c1ccc(Cl)cc1)c1cc(F)cc(F)c1` [Example 151, methyl{(1S)-2-[(2-{2-[(2R)-9-acetyl-1-oxa-4,9-diazaspiro[5.5]undec-2-yl]ethyl}-3-fluorophenyl)amino]-1-[(S)-(4-chlorophenyl)(3,5-difluorophenyl)methyl]-2-oxoethyl}carbamate] returned an IC50 of 0.17 µM. For `N[C@H](C(=O)Nc1cncc(F)c1CC[C@@H]1CNCC2(CCOCC2)O1)[C@@H](c1ccc(Cl)cc1)C1CCOCC1` [Example 158, (βR)-4-chloro-N-(4-{2-[(2R)-1,9-dioxa-4-azaspiro[5.5]undec-2-yl]ethyl}-5-fluoropyridin-3-yl)-β-(tetrahydro-2H-pyran-4-yl)-L-phenylalaninamide] the value was 0.39 µM. Under `COC(=O)N[C@H](C(=O)Nc1cncc(F)c1CC[C@@H]1CNCC2(CCN(C(C)=O)CC2)O1)[C@@H](c1ccc(Cl)cc1)c1cc(F)cc(F)c1` [Example 153, methyl{(1S)-2-[(4-{2-[(2R)-9-acetyl-1-oxa-4,9-diazaspiro[5.5]undec-2-yl]ethyl}-5-fluoropyridin-3-yl)amino]-1-[(S)-(4-chlorophenyl)(3,5-difluorophenyl)methyl]-2-oxoethyl}carbamate] stands 0.31 µM. Molecule `N[C@H](C(=O)Nc1cncc(F)c1CC[C@@H]1CNCC2(CCOCC2)O1)C(c1ccc(F)cc1)c1ccc(F)cc1` [Example 101, N-(4-{2-[(2R)-1,9-dioxa-4-azaspiro[5.5]undec-2-yl]ethyl}-5-fluoropyridin-3-yl)-4-fluoro-β-(4-fluorophenyl)-L-phenylalaninamide] returned an IC50 of 0.11 µM. With `N[C@H](C(=O)Nc1cncc(F)c1CC[C@@H]1CNCC2(CCCC2)O1)C(c1ccc(F)cc1)c1ccc(F)cc1` [Example 150, 4-fluoro-N-(5-fluoro-4-{2-[(7R)-6-oxa-9-azaspiro[4.5]dec-7-yl]ethyl}pyridin-3-yl)-β-(4-fluorophenyl)-L-phenylalaninamide], the IC50 was determined as 0.27 µM. Under `N[C@H](C(=O)Nc1cccc(F)c1CC[C@@H]1CNCC2(CCOCC2)O1)[C@@H](c1ccc(Cl)cc1)C1CCOCC1` [Example 159, (βR)-4-chloro-N-(2-{2-[(2R)-1,9-dioxa-4-azaspiro[5.5]undec-2-yl]ethyl}-3-fluorophenyl)-β-(tetrahydro-2H-pyran-4-yl)-L-phenylalaninamide] stands 0.49 µM; under `N[C@H](C(=O)Nc1cccc(F)c1CC[C@@H]1CNCC2(CCOCC2)O1)[C@@H](c1ccc(Cl)cc1)c1cc(F)cc(F)c1` [Example 96, (βS)-4-chloro-β-(3,5-difluorophenyl)-N-(2-{2-[(2R)-1,9-dioxa-4-azaspiro[5.5]undec-2-yl]ethyl}-3-fluorophenyl)-L-phenylalaninamide], 0.08 µM; under `N[C@H](C(=O)Nc1cccc(F)c1CC[C@@H]1CNCC2(CCOC2)O1)[C@@H](c1ccc(Cl)cc1)c1cc(F)cc(F)c1` (stereo partly drawn) [Example 162, (βS)-4-chloro-β-(3,5-difluorophenyl)-N-(2-{2-[(7R)-2,6-dioxa-9-azaspiro[4.5]dec-7-yl]ethyl}-3-fluorophenyl)-L-phenylalaninamide], 0.18 µM. Under `COC(=O)N[C@H](C(=O)Nc1cncc(F)c1CC[C@@H]1CNCC2(CCOCC2)O1)[C@@H](c1ccc(Cl)cc1)C1CCOCC1` [Example 160, methyl[(1S,2R)-2-(4-chlorophenyl)-1-[(4-{2-[(2R)-1,9-dioxa-4-azaspiro[5.5]undec-2-yl]ethyl}-5-fluoropyridin-3-yl)carbamoyl]-2-(tetrahydro-2H-pyran-4-yl)ethyl]carbamate] stands 0.35 µM; under `N[C@H](C(=O)Nc1cncc(F)c1CC[C@@H]1CNCC2(CCOCC2)O1)[C@@H](c1ccc(Cl)cc1)c1cc(F)cc(F)c1` [Example 155, (βS)-4-chloro-β-(3,5-difluorophenyl)-N-(4-{2-[(2R)-1,9-dioxa-4-azaspiro[5.5]undec-2-yl]ethyl}-5-fluoropyridin-3-yl)-L-phenylalaninamide], 0.14 µM. The molecule `COC(=O)N[C@H](C(=O)Nc1cncc(F)c1CC[C@@H]1CNCC2(CCCC2)O1)C(c1ccc(F)cc1)c1ccc(F)cc1` [Example 100, methyl {(1S)-1-[bis(4-fluorophenyl)methyl]-2-[(5-fluoro-4-{2-[(7R)-6-oxa-9-azaspiro[4.5]dec-7-yl]ethyl}pyridin-3-yl)amino]-2-oxoethyl}carbamate] had an IC50 of 0.071 µM.

On to `COC(=O)N[C@H](C(=O)Nc1cccc(F)c1CC[C@@H]1CNCC2(CCOCC2)O1)[C@@H](c1ccc(Cl)cc1)c1cc(F)cc(F)c1` [Example 97, methyl {(1S,2S)-2-(4-chlorophenyl)-2-(3,5-difluorophenyl)-1-[(2-{2-[(2R)-1,9-dioxa-4-azaspiro[5.5]undec-2-yl]ethyl}-3-fluorophenyl)carbamoyl]ethyl}carbamate], for which the IC50 was found to be 0.055 µM.

Consider `N[C@H](C(=O)Nc1cncc(F)c1CC[C@@H]1CNCC2(CCOCC2)O1)[C@@H](c1ccc(Cl)cc1)c1cccc(OC(F)(F)F)c1` [Example 156, (βS)-4-chloro-N-(4-{2-[(2R)-1,9-dioxa-4-azaspiro[5.5]undec-2-yl]ethyl}-5-fluoropyridin-3-yl)-β-[3-(trifluoromethoxy)phenyl]-L-phenylalaninamide], for which the midpoint of inhibition, the IC50, lay at 0.48 µM. Turning to `CC(=O)N1CCC2(CC1)CNC[C@@H](CCc1c(F)cccc1NC(=O)[C@@H](N)[C@@H](c1ccc(Cl)cc1)c1cc(F)cc(F)c1)O2` [Example 95, (2S,3S)—N-(2-(2-((R)-9-Acetyl-1-oxa-4,9-diazaspiro[5.5]undecan-2-yl)ethyl)-3-fluorophenyl)-2-amino-3-(4-chlorophenyl)-3-(3,5-difluorophenyl)propanamide], half-maximal inhibition (IC50) required 0.15 µM.

`COC(=O)N[C@H](C(=O)Nc1cccc(F)c1CC[C@@H]1CNCC2(CCOC2)O1)[C@@H](c1ccc(Cl)cc1)c1cc(F)cc(F)c1` (stereo partly drawn) [Example 163, methyl{(1S,2S)-2-(4-chlorophenyl)-2-(3,5-difluorophenyl)-1-[(2-{2-[(7R)-2,6-dioxa-9-azaspiro[4.5]dec-7-yl]ethyl}-3-fluorophenyl)carbamoyl]ethyl}carbamate] came in with an IC50 of 0.15 µM.

As for `CS(=O)(=O)N1CCC2(CC1)CNC[C@@H](CCc1c(F)cncc1NC(=O)[C@@H](N)[C@@H](c1ccc(Cl)cc1)c1cccc(OC(F)(F)F)c1)O2` [Example 154, (βS)-β-(4-chlorophenyl)-N-(5-fluoro-4-{2-[(2R)-9-(methylsulfonyl)-1-oxa-4,9-diazaspiro[5.5]undec-2-yl]ethyl}pyridin-3-yl)-3-(trifluoromethoxy)-L-phenylalaninamide], the IC50 came out at 0.3 µM.

Molecule `COC(=O)N[C@H](C(=O)Nc1cccc(F)c1CC[C@@H]1CNCC2(CCCC(=O)C2)O1)[C@@H](c1ccc(F)cc1)c1cc(F)cc(F)c1` (stereo partly drawn) [Example 92, Methyl ((1S,2S)-1-(3,5-difluorophenyl)-3-((3-fluoro-2-(2-((2R)-8-oxo-1-oxa-4-azaspiro[5.5]undecan-2-yl)ethyl)phenyl)amino)-1-(4-fluorophenyl)-3-oxopropan-2-yl)carbamate] came in with an IC50 of 0.035 µM.

Molecule `COC(=O)N[C@H](C(=O)Nc1cncc(F)c1CC[C@@H]1CNCC2(CCOCC2)O1)[C@@H](c1ccc(Cl)cc1)c1cccc(OC(F)(F)F)c1` [Example 157, methyl{(1S,2S)-2-(4-chlorophenyl)-1-[(4-{2-[(2R)-1,9-dioxa-4-azaspiro[5.5]undec-2-yl]ethyl}-5-fluoropyridin-3-yl)carbamoyl]-2-[3-(trifluoromethoxy)phenyl]ethyl}carbamate] gave an IC50 of 0.21 µM.

Values taken from US9994587B2, “HIV protease inhibitors” (priority 2014, dated 2018).
